# Values of other authors as cited in patent US20160128986A1, “METHODS AND COMPOSITIONS RELATED TO THE USE OF LOW HLB SURFACTANTS IN THE PRODUCTION OF SYNTHETIC NANOCARRIERS COMPRISING A RAPALOG” (Selecta Biosciences, Inc., priority 2014, published 2016).
# Details: publicly available information
row,HLB of Surfactant,Compound
1,4.3,Sorbitan monooleate [SPAN 80]
2,4,Polyethylene glycol oleyl ether [Brij 93]
3,15,Polysorbate 80
4,12,"CCCCCCCCO[C@@H]1O[C@H](CO)[C@@H](O)[C@H](O)[C@H]1O [octyl β-D-glucopyranoside, Octyl β-D-glucopyranoside]"
5,5,Polyethylene glycol hexadecyl ether [Brij 52]
6,6.7,Sorbitan monopalmitate [SPAN 40]

row,Compound,HLB of Surfactant
1,Sorbitan monolaurate [SPAN 20],8.6
2,CCCCCCCCCCCCCCCC(=O)O [Palmitic Acid],3.2
3,Sorbitan stearate [SPAN 60],4.7
